{"source": "patent US20130011845A1", "about": "“MICRORNA REGULATING THE INSULIN SIGNALING PATHWAY, AND METHOD FOR SCREENING MATERIAL FOR CONTROLLING THE ACTION OF A TARGET THEREOF” (SNU R & DB Foundation, priority 2009, published 2013)", "key": {"ERBB2IP 3′UTR": {"system": "ERBB2IP 3′UTR", "experiment": "dual-luciferase 3′UTR reporter assay, pAC-ERBB2IP", "format": "cell-based", "settings": "luciferase reporter with ERBB2IP 3′UTR, human Hela cell lines; average of at least two independent experiments", "method": "(§1) In order to determine whether the target genes identified in Example 7 are in actuality targets of miR-8 and miR-200 family miRNAs, the inventors performed cloning. In other words, […] containing the miRNA target sites. Specifically, in order to obtain cDNAs of respective target genes, from drosophila S2 cell lines or human Hela cell lines, total RNA was extracted by using RNeasy mini kit (QIAGEN, US). 1 μg of total RNA and 1 μl of Oligo-dT (Invitrogen, US) were charged with up to 50 μl of distilled water, and placed into SuperScript First-Strand Synthesis System (Invitrogen, US), followed by RT-PCR reaction. Through the reaction at 65° C. for 6 min, at 4° C. for 5 min, at 42° C. for 60 min, at 95° C. for 5 min, and at 4° C. for 5 min, cDNA was synthesized. By using the cDNA (3˜5 μg) as template, and using a primer pair on respective genes noted in Table 3 and PCR Mastermix (Promega, US), PCR was performed on 3′UTR of ush, Lap1, CG8445, dbo, Lar, Ced-12, CG12333, cbt, FOG2, SEPT7, RIN2, SHC1, HOXB5, LF11, TCF7L1, ERBB21P, ELMO2, BAP1, WDR37, KLHL20, PTPRD, RASSF2 and VAC14 from among the target genes selected in Example 7. Herein, PCRP on atro as a drosophila control gene was also performed. After the reaction was completed, the PCR product on each gene's 3′UTR region was cleaved by each of the following restriction enzymes:\n(§2) Then, it was cloned into pAC5.1 luciferase vector (a kind gift of Elisa Izaurralde) cleaved by the same restriction enzymes so as to produce a reporter plasmid having a miR-8 or miR-200 family target sequence in luciferase gene's 3′UTR sequence.\n(§3) Reporter plasmids and renilla luciferase expression vectors (Promega, US), as noted in Table 4, and miRNAs of miR-200 family of miR-141, miR-200a (hsa-miR-200a, SEQ ID: 87: 5′-[…]-3′), miR-200b, miR-200c (has-miR-200c, SEQ ID: 88: 5′-[…]-3′) and miR-429, and miR-8 (dme-miR-8, SEQ ID: 89: 5′-[…]-3′) were bought from Samchonri and cotransfected into drosophila S2 cell lines or human Hela cell lines. Then, the activities of luciferase were measured through dual-luciferase assay (Promega, US) by a luminometer (Biorad). Then, 7 gene pairs that respond both to miR-8 and to mir-200 family miRNAs in Drosophila and human cells, respectively were identified (see FIG. 15)."}, "BAP1 3′UTR": {"system": "BAP1 3′UTR", "experiment": "dual-luciferase 3′UTR reporter assay, pAC-BAP1", "format": "cell-based", "settings": "luciferase reporter with BAP1 3′UTR, human Hela cell lines; average of at least two independent experiments", "method": "as §1, §2, §3"}, "ELMO2 3′UTR": {"system": "ELMO2 3′UTR", "experiment": "dual-luciferase 3′UTR reporter assay, pAC-ELMO2", "format": "cell-based", "settings": "luciferase reporter with ELMO2 3′UTR, human Hela cell lines; average of at least two independent experiments", "method": "as §1, §2, §3"}, "RASSF2 3′UTR": {"system": "RASSF2 3′UTR", "experiment": "dual-luciferase 3′UTR reporter assay, pAC-RASSF2", "format": "cell-based", "settings": "luciferase reporter with RASSF2 3′UTR, human Hela cell lines; average of at least two independent experiments", "method": "as §1, §2, §3"}, "VAC14 3′UTR": {"system": "VAC14 3′UTR", "experiment": "dual-luciferase 3′UTR reporter assay, pAC-VAC14", "format": "cell-based", "settings": "luciferase reporter with VAC14 3′UTR, human Hela cell lines; average of at least two independent experiments", "method": "as §1, §2, §3"}, "KLF11 3′UTR": {"system": "KLF11 3′UTR", "experiment": "dual-luciferase 3′UTR reporter assay, pAC-KLF11", "format": "cell-based", "settings": "luciferase reporter with KLF11 3′UTR, human Hela cell lines; average of at least two independent experiments", "method": "as §1, §2, §3"}, "Hep3B cells": {"system": "Hep3B cells", "experiment": "MTT cellular viability assay", "format": "cell-based, human", "settings": "Hep3B cells transfected with 30 nM", "method": "Because stimulation of PI3K and Akt is known to facilitate cell proliferation and antagonize apoptosis (Pollak, 2008), the inventors measured cellular viability with the MTT (3-(4,5-dimethylthiazol-2-yl)-2,5-diphenyltetrazolium bromide) assay in Hep3B cells. Specifically, Hep3B cells were plated in a 96-well plate, and transfected with 30 nM of synthesized siGFP, miR-141, miR-200a, miR-200b, miR-200c, miR-429 or siFOG2. Then, to the plate, 50 μl of MTT solution (2 mg/ml) (Promega, US) was added per each well, followed by culturing at 37 °C for 1 hour. Then, each well was added with 150 μl of DMSO, and measured by a microplate reader (Bio-rad, US) at a wavelength of 590 nm. Also, Hep3B cells were transfected with 200 nM of luciferase, or 200 nM of oligonucleotides having complementary sequences to miR-141, miR-200a, miR-200b, miR-200c or miR-429, and then were subjected to MTT assay in the same manner as described above."}, "FOXO": {"system": "FOXO", "experiment": "FOXO luciferase reporter (pFK1tk-luc) assay in Hep3B cells", "format": "cell-based, human", "excerpt": "The inventors analyzed the effect of miR-200 miRNAs on the downstream transducers of Akt (see FIGS. 44 to 47). Because Akt represses FOXO activity, the inventors used a luciferase reporter plasmid (pFK1tk-luc) (Biggs, W H et al., 1999, Proc Natl Acad Sci USA 96, 7421-7426) containing eight FOXO-binding sites to determine the level of FOXO activity in cultured cells. Specifically, Hep3B cells were transfected with synthesized siGFP, miR-141, miR-200a, miR-200b, miR-200c, miR-429 or siFOG2 together with pFK1tk-luc vector, and then luciferase activity was measured in the same manner as described Example 8-2. Also, Hep3B cells were transfected with luciferase, or oligonucleotides having complementary sequence to miR-141, miR-200a, miR-200b, miR-200c or miR-429 together with pFK1tk-luc vector. Then, the luciferase activity was measured in the same manner as described above. Further, Hep3B cell lines were transfected with pCK-flag (empty vector) and pCK-FOG2 produced in Example 16-1, and the luciferase activity was measured in the same manner as described above. […] Further, treating the cells with miR-200 inhibitors elevated FOXO activity (see FIG. 46)."}, "TCF7L1 3′UTR": {"system": "TCF7L1 3′UTR", "experiment": "dual-luciferase 3′UTR reporter assay, pAC-TCF7L1", "format": "cell-based", "settings": "luciferase reporter with TCF7L1 3′UTR, human Hela cell lines; average of at least two independent experiments", "method": "as §1, §2, §3"}, "PTPRD 3′UTR": {"system": "PTPRD 3′UTR", "experiment": "dual-luciferase 3′UTR reporter assay, pAC-PTPRD", "format": "cell-based", "settings": "luciferase reporter with PTPRD 3′UTR, human Hela cell lines; average of at least two independent experiments", "method": "as §1, §2, §3"}}, "data": [{"substance": "5′-UAACACUGUCUGGUAACGAUGU-3′ (listed as RNA, chemistry not given here) [miR-200a]", "values": [{"measurement": "Represion fold, ERBB2IP", "setting": "ERBB2IP 3′UTR", "result": 1.18, "unit": "fold"}, {"measurement": "Represion fold, BAP1", "setting": "BAP1 3′UTR", "result": 1.04, "unit": "fold"}, {"measurement": "Represion fold, ELMO2", "setting": "ELMO2 3′UTR", "result": 1.22, "unit": "fold"}, {"measurement": "Represion fold, RASSF2", "setting": "RASSF2 3′UTR", "result": 1.36, "unit": "fold"}, {"measurement": "Represion fold, VAC14", "setting": "VAC14 3′UTR", "result": 1.19, "unit": "fold"}, {"measurement": "Represion fold, KLF11", "setting": "KLF11 3′UTR", "result": 1.20, "unit": "fold"}, {"measurement": "cell viability (MTT)", "setting": "Hep3B cells", "result": "increased cell viability"}, {"measurement": "FOXO activity (activity of luciferase, pFK1tk-luc)", "setting": "FOXO", "result": "significantly repressed"}, {"measurement": "Represion fold, TCF7L1", "setting": "TCF7L1 3′UTR", "result": 1.17, "unit": "fold"}, {"measurement": "Represion fold, PTPRD", "setting": "PTPRD 3′UTR", "result": 1.25, "unit": "fold"}]}, {"substance": "5′-UAAUACUGUCUGGUAAAACCGU-3′ (listed as RNA, chemistry not given here) [miR-429]", "values": [{"measurement": "Represion fold, ERBB2IP", "setting": "ERBB2IP 3′UTR", "result": 0.54, "unit": "fold"}, {"measurement": "Represion fold, BAP1", "setting": "BAP1 3′UTR", "result": 0.67, "unit": "fold"}, {"measurement": "Represion fold, ELMO2", "setting": "ELMO2 3′UTR", "result": 0.89, "unit": "fold"}, {"measurement": "Represion fold, RASSF2", "setting": "RASSF2 3′UTR", "result": 1.01, "unit": "fold"}, {"measurement": "Represion fold, VAC14", "setting": "VAC14 3′UTR", "result": 1.17, "unit": "fold"}, {"measurement": "Represion fold, KLF11", "setting": "KLF11 3′UTR", "result": 1.07, "unit": "fold"}, {"measurement": "cell viability (MTT)", "setting": "Hep3B cells", "result": "increased cell viability"}, {"measurement": "FOXO activity (activity of luciferase, pFK1tk-luc)", "setting": "FOXO", "result": "significantly repressed"}, {"measurement": "Represion fold, TCF7L1", "setting": "TCF7L1 3′UTR", "result": 0.71, "unit": "fold"}, {"measurement": "Represion fold, PTPRD", "setting": "PTPRD 3′UTR", "result": 0.75, "unit": "fold"}]}, {"substance": "5′-UAACACUGUCUGGUAAAGAUGG-3′ (listed as RNA, chemistry not given here) [miR-141]", "values": [{"measurement": "Represion fold, ERBB2IP", "setting": "ERBB2IP 3′UTR", "result": 0.7, "unit": "fold"}, {"measurement": "Represion fold, BAP1", "setting": "BAP1 3′UTR", "result": 0.84, "unit": "fold"}, {"measurement": "Represion fold, ELMO2", "setting": "ELMO2 3′UTR", "result": 0.73, "unit": "fold"}, {"measurement": "Represion fold, RASSF2", "setting": "RASSF2 3′UTR", "result": 0.90, "unit": "fold"}, {"measurement": "Represion fold, VAC14", "setting": "VAC14 3′UTR", "result": 0.99, "unit": "fold"}, {"measurement": "Represion fold, KLF11", "setting": "KLF11 3′UTR", "result": 1.03, "unit": "fold"}, {"measurement": "cell viability (MTT)", "setting": "Hep3B cells", "result": "increased cell viability"}, {"measurement": "FOXO activity (activity of luciferase, pFK1tk-luc)", "setting": "FOXO", "result": "significantly repressed"}, {"measurement": "Represion fold, TCF7L1", "setting": "TCF7L1 3′UTR", "result": 0.91, "unit": "fold"}, {"measurement": "Represion fold, PTPRD", "setting": "PTPRD 3′UTR", "result": 0.89, "unit": "fold"}]}, {"substance": "5′-UAAUACUGCCUGGUAAUGAUGA-3′ (listed as RNA, chemistry not given here) [miR-200b]", "values": [{"measurement": "Represion fold, ERBB2IP", "setting": "ERBB2IP 3′UTR", "result": 0.57, "unit": "fold"}, {"measurement": "Represion fold, BAP1", "setting": "BAP1 3′UTR", "result": 0.79, "unit": "fold"}, {"measurement": "Represion fold, ELMO2", "setting": "ELMO2 3′UTR", "result": 1.04, "unit": "fold"}, {"measurement": "Represion fold, RASSF2", "setting": "RASSF2 3′UTR", "result": 1.28, "unit": "fold"}, {"measurement": "Represion fold, VAC14", "setting": "VAC14 3′UTR", "result": 1.20, "unit": "fold"}, {"measurement": "Represion fold, KLF11", "setting": "KLF11 3′UTR", "result": 1.02, "unit": "fold"}, {"measurement": "cell viability (MTT)", "setting": "Hep3B cells", "result": "increased cell viability"}, {"measurement": "FOXO activity (activity of luciferase, pFK1tk-luc)", "setting": "FOXO", "result": "significantly repressed"}, {"measurement": "Represion fold, TCF7L1", "setting": "TCF7L1 3′UTR", "result": 0.81, "unit": "fold"}, {"measurement": "Represion fold, PTPRD", "setting": "PTPRD 3′UTR", "result": 0.89, "unit": "fold"}]}]}
